Assays:
[1] = biological target: G/T mismatch-specific thymine DNA glycosylase (Homo sapiens) (UniProt Q13569); conditions: Compound Concentration 10.0 uM, Hit No;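 note: human TDG cleavage of quenched duplex DNA oligonucleotides coupled to APE1, strand release read as fluorescence at 594 nm, inhibition of TDG activity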
Description: Inhibition of TDG by quantifying inhibition of TDG-mediated cleavage and dissociation of quenched duplex DNA oligonucleotides, measured as fluorescence at 594 nm. To generate a functional strand incision and increase turn-over this assay is coupled to APE1.

[2] = biological target: Methyl-CpG-binding domain protein 4 (Homo sapiens) (UniProt O95243); conditions: Compound Concentration 10.0 uM, Hit No;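 note: MBD4 activity read as fluorescence at 594 nm from cleavage and release of a quenched duplex DNA oligonucleotide, with APE1 coupled to incise the strand and raise turnover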
Sequence of Methyl-CpG-binding domain protein 4 (Homo sapiens) (O95243 whole entry, the tested form may be a part): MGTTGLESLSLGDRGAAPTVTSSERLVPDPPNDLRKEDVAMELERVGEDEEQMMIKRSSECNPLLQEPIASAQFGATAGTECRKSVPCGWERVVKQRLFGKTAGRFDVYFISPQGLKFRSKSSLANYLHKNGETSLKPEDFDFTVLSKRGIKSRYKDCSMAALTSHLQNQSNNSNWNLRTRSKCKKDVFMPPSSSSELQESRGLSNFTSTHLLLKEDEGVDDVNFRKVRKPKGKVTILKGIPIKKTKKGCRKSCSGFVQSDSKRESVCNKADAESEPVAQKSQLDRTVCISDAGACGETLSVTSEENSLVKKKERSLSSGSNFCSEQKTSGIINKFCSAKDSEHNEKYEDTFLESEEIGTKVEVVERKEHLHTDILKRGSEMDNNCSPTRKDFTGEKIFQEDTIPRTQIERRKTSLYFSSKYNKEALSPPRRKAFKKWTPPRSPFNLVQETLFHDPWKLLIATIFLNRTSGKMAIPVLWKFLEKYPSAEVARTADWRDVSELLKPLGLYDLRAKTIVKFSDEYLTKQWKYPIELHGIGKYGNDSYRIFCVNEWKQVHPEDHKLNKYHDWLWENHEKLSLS
Description: Inhibition of MBD4 by quantifying inhibition of MBD4-mediated cleavage and dissociation of quenched duplex DNA oligonucleotides, measured as fluorescence at 594 nm. To generate a functional strand incision and increase turn-over this assay is coupled to APE1.

[3] = biological target: Endonuclease 8-like 1 (Homo sapiens) (UniProt Q96FI4); conditions: Compound Concentration 10.0 uM, Hit No;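 note: fluorescence at 594 nm from quenched duplex DNA oligonucleotides released by NEIL1 cleavage and strand separation, reported as reduction of this enzyme activity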
Sequence of Endonuclease 8-like 1 (Homo sapiens) (Q96FI4 whole entry): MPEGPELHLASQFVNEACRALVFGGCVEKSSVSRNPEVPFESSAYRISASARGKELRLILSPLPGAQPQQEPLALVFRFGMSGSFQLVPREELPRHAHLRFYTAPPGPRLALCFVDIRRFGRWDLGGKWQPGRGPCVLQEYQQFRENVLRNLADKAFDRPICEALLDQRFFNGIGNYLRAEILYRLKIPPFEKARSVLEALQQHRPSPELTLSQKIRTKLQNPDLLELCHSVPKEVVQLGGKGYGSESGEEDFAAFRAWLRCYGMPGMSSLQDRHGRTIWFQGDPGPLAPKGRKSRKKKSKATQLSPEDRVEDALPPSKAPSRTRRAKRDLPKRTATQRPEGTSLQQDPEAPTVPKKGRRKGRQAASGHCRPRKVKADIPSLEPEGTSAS
Description: Inhibition of NEIL1 by quantifying inhibition of NEIL1-mediated cleavage and dissociation of quenched duplex DNA oligonucleotides, measured as fluorescence at 594 nm.

[4] = biological target: N-glycosylase/DNA lyase (Homo sapiens) (UniProt O15527); conditions: Compound Concentration 10.0 uM;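 note: OGG1 cleavage of a quenched duplex DNA oligonucleotide, coupled to APE1 for strand incision, read as fluorescence at 594 nm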
Sequence of N-glycosylase/DNA lyase (Homo sapiens) (O15527 whole entry): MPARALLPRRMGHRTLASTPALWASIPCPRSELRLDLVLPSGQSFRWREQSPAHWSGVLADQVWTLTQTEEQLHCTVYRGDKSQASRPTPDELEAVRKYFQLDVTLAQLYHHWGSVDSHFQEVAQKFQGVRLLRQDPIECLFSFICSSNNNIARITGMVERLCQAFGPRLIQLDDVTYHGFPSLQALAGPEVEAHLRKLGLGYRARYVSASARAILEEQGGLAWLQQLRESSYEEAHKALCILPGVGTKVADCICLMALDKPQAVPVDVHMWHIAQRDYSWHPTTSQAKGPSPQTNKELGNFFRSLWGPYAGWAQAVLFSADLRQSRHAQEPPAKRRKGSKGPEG
Description: Inhibition of OGG1 by quantifying inhibition of OGG1-mediated cleavage and dissociation of quenched duplex DNA oligonucleotides, measured as fluorescence at 594 nm. To generate a functional strand incision and increase turn-over this assay is coupled to APE1.

[5] = biological target: T1, Adenine DNA glycosylase (Homo sapiens) (UniProt Q9UIF7); conditions: Compound Concentration 10.0 uM, Hit No;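 note: human MUTYH activity read as 594 nm fluorescence from cleavage and release of a quenched DNA duplex, coupled with APE1 for strand incision, lower signal meaning inhibition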
T1 sequence (whole entry): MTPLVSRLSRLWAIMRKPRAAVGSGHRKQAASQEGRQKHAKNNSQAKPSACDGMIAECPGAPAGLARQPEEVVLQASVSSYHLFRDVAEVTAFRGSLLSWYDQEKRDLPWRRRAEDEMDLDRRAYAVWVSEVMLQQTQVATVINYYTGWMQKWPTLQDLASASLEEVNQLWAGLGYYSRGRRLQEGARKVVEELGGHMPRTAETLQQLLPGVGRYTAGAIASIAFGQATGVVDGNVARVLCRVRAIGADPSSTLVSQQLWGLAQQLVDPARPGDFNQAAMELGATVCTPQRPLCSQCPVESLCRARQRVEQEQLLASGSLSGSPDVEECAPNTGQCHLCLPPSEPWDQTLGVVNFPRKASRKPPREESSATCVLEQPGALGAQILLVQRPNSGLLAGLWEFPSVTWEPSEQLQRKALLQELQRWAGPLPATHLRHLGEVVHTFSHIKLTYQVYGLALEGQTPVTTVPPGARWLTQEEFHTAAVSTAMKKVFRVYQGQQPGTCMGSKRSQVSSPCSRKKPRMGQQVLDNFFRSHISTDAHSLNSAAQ
Description: Inhibition of MUTYH by quantifying inhibition of MUTYH-mediated cleavage and dissociation of quenched duplex DNA oligonucleotides, measured as fluorescence at 594 nm. To generate a functional strand incision and increase turn-over this assay is coupled to APE1.

[6] = biological target: DNA-3-methyladenine glycosylase (Homo sapiens) (UniProt P29372); conditions: Compound Concentration 10.0 uM, Hit No;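 note: enzyme assay where MPG cuts a quenched duplex DNA oligonucleotide probe, paired with APE1 for strand incision and turnover, read as fluorescence at 594 nm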
Sequence of DNA-3-methyladenine glycosylase (Homo sapiens) (P29372 whole entry): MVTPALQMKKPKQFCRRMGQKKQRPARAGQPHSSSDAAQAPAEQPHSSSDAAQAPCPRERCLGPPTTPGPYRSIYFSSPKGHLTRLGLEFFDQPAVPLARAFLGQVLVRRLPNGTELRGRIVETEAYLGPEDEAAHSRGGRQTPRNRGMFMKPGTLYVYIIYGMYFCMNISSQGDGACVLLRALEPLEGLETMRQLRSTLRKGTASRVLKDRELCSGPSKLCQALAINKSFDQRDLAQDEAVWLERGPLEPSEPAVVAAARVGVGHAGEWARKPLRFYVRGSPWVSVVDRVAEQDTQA
Description: Inhibition of MPG by quantifying inhibition of MPG-mediated cleavage and dissociation of quenched duplex DNA oligonucleotides, measured as fluorescence at 594 nm. To generate a functional strand incision and increase turn-over this assay is coupled to APE1.

[7] = biological target: T2, Single-strand selective monofunctional uracil DNA glycosylase (Homo sapiens) (UniProt Q53HV7); conditions: Compound Concentration 10.0 uM, Hit No;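 note: enzymatic SMUG1 assay coupled with APE1, reading fluorescence at 594 nm released when a quenched double-stranded DNA oligonucleotide substrate is cleaved and separated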
T2 sequence (whole entry): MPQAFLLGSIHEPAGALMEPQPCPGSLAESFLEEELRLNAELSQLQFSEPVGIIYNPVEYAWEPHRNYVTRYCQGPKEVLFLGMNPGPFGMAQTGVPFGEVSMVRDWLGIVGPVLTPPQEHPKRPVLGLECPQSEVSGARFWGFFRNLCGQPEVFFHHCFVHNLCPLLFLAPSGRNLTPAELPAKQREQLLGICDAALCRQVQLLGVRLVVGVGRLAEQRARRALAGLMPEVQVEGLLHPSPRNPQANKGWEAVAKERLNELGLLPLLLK
Description: Inhibition of SMUG1 by quantifying inhibition of SMUG1-mediated cleavage and dissociation of quenched duplex DNA oligonucleotides, measured as fluorescence at 594 nm. To generate a functional strand incision and increase turn-over this assay is coupled to APE1.

[8] = biological target: Uracil-DNA glycosylase (Homo sapiens) (UniProt P13051); conditions: Compound Concentration 10.0 uM, Hit No;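 note: UNG excision on a quenched double-stranded DNA oligo probe, with APE1 added for strand incision and turnover, read as fluorescence at 594 nm as strands separate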
Sequence of Uracil-DNA glycosylase (Homo sapiens) (P13051 whole entry): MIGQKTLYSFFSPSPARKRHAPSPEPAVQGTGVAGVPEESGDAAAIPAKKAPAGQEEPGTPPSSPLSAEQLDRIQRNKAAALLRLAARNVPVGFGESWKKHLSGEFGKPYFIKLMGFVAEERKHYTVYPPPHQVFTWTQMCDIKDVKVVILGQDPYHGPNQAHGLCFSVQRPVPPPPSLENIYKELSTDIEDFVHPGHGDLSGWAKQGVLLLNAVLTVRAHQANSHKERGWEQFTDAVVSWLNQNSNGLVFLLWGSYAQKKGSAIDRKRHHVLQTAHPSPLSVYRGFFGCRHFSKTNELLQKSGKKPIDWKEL
Description: Inhibition of UNG by quantifying inhibition of UNG-mediated cleavage and dissociation of quenched duplex DNA oligonucleotides, measured as fluorescence at 594 nm. To generate a functional strand incision and increase turn-over this assay is coupled to APE1.

[9] = biological target: T3, Endonuclease 8-like 2 (Homo sapiens) (UniProt Q969S2); conditions: Compound Concentration 10.0 uM, Hit No;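 note: fluorescence at 594 nm reports NEIL2 cutting and release of a quenched double-stranded DNA oligo substrate, reduced signal read as inhibition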
T3 sequence (whole entry): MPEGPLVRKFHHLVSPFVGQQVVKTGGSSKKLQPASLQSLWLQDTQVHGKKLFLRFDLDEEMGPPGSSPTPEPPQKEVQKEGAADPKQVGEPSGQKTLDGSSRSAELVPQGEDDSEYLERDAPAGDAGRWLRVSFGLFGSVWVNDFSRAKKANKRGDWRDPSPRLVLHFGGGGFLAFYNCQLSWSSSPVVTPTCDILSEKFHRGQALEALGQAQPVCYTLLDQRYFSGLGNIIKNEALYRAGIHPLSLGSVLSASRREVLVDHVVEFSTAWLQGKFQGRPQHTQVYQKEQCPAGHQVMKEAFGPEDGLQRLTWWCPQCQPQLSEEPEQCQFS
Description: Inhibition of NEIL2 by quantifying inhibition of NEIL2-mediated cleavage and dissociation of quenched duplex DNA oligonucleotides, measured as fluorescence at 594 nm.

Sequence of G/T mismatch-specific thymine DNA glycosylase (Homo sapiens) (Q13569 whole entry, the tested form may be a part): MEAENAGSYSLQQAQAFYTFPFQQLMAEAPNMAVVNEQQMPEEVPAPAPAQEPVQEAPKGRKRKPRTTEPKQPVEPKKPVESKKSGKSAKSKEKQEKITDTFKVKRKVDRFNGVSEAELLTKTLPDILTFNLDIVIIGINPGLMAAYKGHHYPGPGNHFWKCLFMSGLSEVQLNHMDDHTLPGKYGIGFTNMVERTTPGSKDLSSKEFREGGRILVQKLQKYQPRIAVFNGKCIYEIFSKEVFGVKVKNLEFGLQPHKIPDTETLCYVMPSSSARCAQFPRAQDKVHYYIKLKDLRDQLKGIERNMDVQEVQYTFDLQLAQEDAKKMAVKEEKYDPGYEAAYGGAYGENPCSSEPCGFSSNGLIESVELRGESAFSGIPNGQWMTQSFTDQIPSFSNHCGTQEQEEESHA

Compound	inhibition [1] [%]	inhibition [2] [%]	inhibition [3] [%]	inhibition ([4]; Hit No) [%]	inhibition [5] [%]	inhibition [6] [%]	inhibition [7] [%]	inhibition [8] [%]	inhibition [9] [%]	inhibition ([4]; Hit Yes) [%]
CC[C@@H]1C(=O)N(C)c2cnc(Nc3ccc(C(=O)NC4CCN(C)CC4)cc3OC)nc2N1C1CCCC1	69.8	33	2.78	-5.59	38.1	7.81	23.4	13.3		
Cc1cccc(S(=O)(=O)N(C)[C@H](C)CCN2CCC(C)CC2)c1	1.58	3.33	1.79		9.55	-2.23	1.46	-5.83	6.53	
CC#C[C@@H](CC(=O)O)c1ccc(OCc2cccc(-c3ccc(C(F)(F)F)cc3)c2)cc1	41.7	48.1	1.13		47.2	28.7		-4.48	0.764	64.3
CN(C)c1ccnc2sc3c(=O)n(N4CCCCCC4)cnc3c12	5.33	-2.87	7.65	18.5	6.93	2.57	-6.77		16	
CC(C)NC(=O)c1ccc(C#Cc2ccncc2)cn1	8.93	-1.07	7.51	2.41	12.7	-5.61	2.68		5.76	
COc1ccc(Br)cc1S(=O)(=O)NC(=O)/C=C/c1ccccc1Cc1ccc2ccccc2c1	2.91	18	0.537	30.2	5.65	-3.79	-2.31		6.5	
COc1cc(C(=O)N(CCCc2ccccc2)Cc2ccc(CC(=O)O)cc2)cc(OC)c1C	17.3	21.5	-1.83	-6.84	20.4	2.65	-4.44		-7.97	
Cc1cc(-c2ccc3c(c2)CC[C@H]3N2CC3(CCN(C(=O)Cc4cn5cc(C)sc5n4)CC3)C2)ncn1	6.67	2.75	-1.18	-7.69	0.491	-2.4	-0.24	-6.41		
C=CC(=O)Nc1ccc2[nH]c(=O)n(C3CCN(C(=O)c4ccc(-c5nc6cc[nH]c(=O)c6cc5-c5ccccc5)cc4)CC3)c2c1	58.7	-5.4	-0.919	78.5	1.89	-2.18		-1.3	19.4	
CCc1cc2c(c(CC)n1)CCC(=O)N2Cc1ccc(-c2ccccc2-c2nnn[nH]2)cc1	13.7	2.76	13.9	6.16	24.1	6.08	-8.27		2.26	
CC(=O)Nc1nc2c(Oc3cc(-c4ccc(C(F)(F)F)cc4)ncn3)cccc2s1	-3.88	1.85	4.31		-8.12	11.2	-4.87	-3.19	-1.88	
O=C(O)COc1cccc(CN(Cc2ccc(-n3cccn3)cc2)S(=O)(=O)c2cccnc2)c1	-2.75	13.1	0.389		5.01	2.46	-3.28		-7.47	
NS(=O)(=O)c1cncc(-c2nc(NCc3ccccn3)c3c(-c4ccccc4)cccc3n2)c1	14.7	16	10.4		8.92	0.0701	7.73	0.783	-1.88	
CC(COc1ccccc1)N(CCCl)Cc1ccccc1 (stereo not drawn)	9.17	6.02	-3.32		20.2	8.43	-8.75		5.01	41.7
CC(C)N(CCCCOCC(=O)NS(C)(=O)=O)c1cnc(-c2ccccc2)c(-c2ccccc2)n1	51	80.6	9.29	17.1	47.5	55.8	-1.68		6.75	
CC(C)C[C@H](NC(=O)N1CCCCCC1)C(=O)N[C@H](Cc1cn(C)c2ccccc12)C(=O)N[C@H](Cc1ccccn1)C(=O)O	3.66	-1.3	-0.0556	-9.37	9.62	-0.244		-6.34	6	
CCCc1nc2c(C)cc(-c3nc4ccccc4n3C)cc2n1Cc1ccc(-c2ccccc2C(=O)O)cc1	18.9	15.7	15.1		24.6	-0.129	3.75	-6.03	15.5	
CCC[C@H](Oc1cc(C)c(-n2cc(C(F)(F)F)cn2)c(C)c1)c1ccc(C(=O)NCCC(=O)O)cc1	24.9	19.8	4.69	8.48	39.2	-2.83			6.5	
COc1cccc(-c2c(C)n(Cc3c(F)cccc3C(F)(F)F)c(=O)n(C[C@H](NCCCC(=O)O)c3ccccc3)c2=O)c1F	27.2	-5.02	-2.87	-3.13	1.3	1.07			-9.22	
O=C(Cc1ccccc1)Nc1nc2ccc(Cl)cc2c2nc(-c3ccco3)nn12	4.82	-7.05	-6.88	-2.3	13.8	6.12			-4.48	
CCCCC#Cc1nc(NC)c2ncn([C@@H]3O[C@H](CO)[C@@H](O)[C@H]3O)c2n1	-7.72	0.324	-4.5	-7.52	-0.235	-9.85	-0.13		5.51	
CCCCc1oc2ccccc2c1C(=O)c1cc(I)c(OCCN(CC)CC)c(I)c1	30.6	28.2		0.672	-0.487	5.3	15.3	1.42	-6.36	
Cc1cc([C@@H](C)Nc2cccc(-c3cc(C)c(C(=O)N[C@@H](C)C(=O)O)c(C)c3)c2)ccc1Cl	36.1	41.7	-0.204	24.2	43.4	24.6		-6.25	-3.73	
Cc1c(F)cccc1NC(=O)Nc1ccc(Cl)c(S(=O)(=O)[C@H]2CCCNC2)c1O	3.94	0.266			-4.97	11.6	-3.57	-9.51	-7.22	
COc1c(Nc2ccc(S(C)(=O)=O)nc2C)ncnc1OC1CCN(C(=O)OC(C)C)CC1	-5.57	-6.99	-6.28	-1.26	16.4	-8.34	-7.64		6	
COc1cc(/C=C/C(=O)NCCn2c(C)cc3ccccc32)cc(OC)c1OC	15.6	11.5	-9.62		6.04	27.9	-8.26	-0.0662	4.49	
